Measurements: patent US20230117034A1, “PYRAZOLOTRIAZINES” (Bayer Aktiengesellschaft, priority 2019, published 2023)

Key:
[1] = target: T1, CYCLIN K (nuclear staining in CAL-120 cells) (Homo sapiens, UniProt O75909); assay: CYCLIN K nuclear protein level: immunofluorescence high content analysis (CAL-120); type: cell-based; conditions: 24 h, 50% reduction of nuclear CCNK staining intensity, median, read-out: CYCLIN K degradation IF, DC50-[mol/l] (median)
T1 construct: endogenous in cells; host or cells: CAL-120 human breast cancer cells (DSMZ ACC 459)
How it was run: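 Readout is automated confocal image analysis of nuclear cyclin K immunofluorescence (Hoechst nuclei) after PFA fixation. Cells were CAL-120, exposed to compound dose-response 24 h at 37 °C; values are DC50 for halving nuclear CCNK signal relative to DMSO and control wells.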

CDK12/CycK = CDK12/CycK (Homo sapiens, UniProt Q9NYV4); assay: CDK12/CycK high ATP kinase assay (TR-FRET, 2 mM ATP); type: biochemical; conditions: 2 mM ATP (high ATP); median; read-out: CDK12/CyclinK, 2 mM ATP (high ATP), IC50-[mol/l] (median)
How it was run: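 Read-out is TR-FRET (Eu-anti-rabbit IgG, anti-phospho-c-Myc Ser62 antibody, streptavidin-XL665) after EDTA stop. Reaction ran 60 min at 22 °C using 1 µM biotin-peptide and high ATP (2 mM) with roughly 0.75 nM recombinant CDK12/CycK, after 15 min compound pre-binding; normalised emission ratios yield IC50.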

[2] = test system: BRCA1 mRNA expression in CAL-120 cells; assay: qRT-PCR assay: BRCA1 mRNA expression in CAL-120; type: cell-based; conditions: Homo sapiens; Inhibition of BRCA1 mRNA expression in CAL-120 cells; median; read-out: RTqPCR-CAL-120, IC50, BRCA1 (median)
How it was run: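 Human breast cancer cells, 200,000/well, were treated with test agents for 24 h without interruption after a 24 h settling period. Gene expression came from qPCR on cDNA made from 600 ng RNA, relative to GAPDH.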

T1 sequence (O75909 whole entry): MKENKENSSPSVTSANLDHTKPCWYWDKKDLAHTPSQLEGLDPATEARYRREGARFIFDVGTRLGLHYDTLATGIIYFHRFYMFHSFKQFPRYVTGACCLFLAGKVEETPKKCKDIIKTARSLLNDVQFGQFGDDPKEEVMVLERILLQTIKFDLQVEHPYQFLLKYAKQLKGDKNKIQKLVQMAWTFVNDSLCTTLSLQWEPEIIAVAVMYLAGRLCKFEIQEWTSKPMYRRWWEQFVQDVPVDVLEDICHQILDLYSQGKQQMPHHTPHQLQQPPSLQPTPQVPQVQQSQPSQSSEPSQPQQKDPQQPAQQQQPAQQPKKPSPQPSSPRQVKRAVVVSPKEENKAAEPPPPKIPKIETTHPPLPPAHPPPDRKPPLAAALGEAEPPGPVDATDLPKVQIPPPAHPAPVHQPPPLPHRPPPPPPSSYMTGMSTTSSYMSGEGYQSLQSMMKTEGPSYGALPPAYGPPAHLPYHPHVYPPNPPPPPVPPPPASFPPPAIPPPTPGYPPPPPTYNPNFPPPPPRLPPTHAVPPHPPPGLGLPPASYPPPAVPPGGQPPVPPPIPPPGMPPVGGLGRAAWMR
T1 sequence (Q9NYV4 whole entry partner): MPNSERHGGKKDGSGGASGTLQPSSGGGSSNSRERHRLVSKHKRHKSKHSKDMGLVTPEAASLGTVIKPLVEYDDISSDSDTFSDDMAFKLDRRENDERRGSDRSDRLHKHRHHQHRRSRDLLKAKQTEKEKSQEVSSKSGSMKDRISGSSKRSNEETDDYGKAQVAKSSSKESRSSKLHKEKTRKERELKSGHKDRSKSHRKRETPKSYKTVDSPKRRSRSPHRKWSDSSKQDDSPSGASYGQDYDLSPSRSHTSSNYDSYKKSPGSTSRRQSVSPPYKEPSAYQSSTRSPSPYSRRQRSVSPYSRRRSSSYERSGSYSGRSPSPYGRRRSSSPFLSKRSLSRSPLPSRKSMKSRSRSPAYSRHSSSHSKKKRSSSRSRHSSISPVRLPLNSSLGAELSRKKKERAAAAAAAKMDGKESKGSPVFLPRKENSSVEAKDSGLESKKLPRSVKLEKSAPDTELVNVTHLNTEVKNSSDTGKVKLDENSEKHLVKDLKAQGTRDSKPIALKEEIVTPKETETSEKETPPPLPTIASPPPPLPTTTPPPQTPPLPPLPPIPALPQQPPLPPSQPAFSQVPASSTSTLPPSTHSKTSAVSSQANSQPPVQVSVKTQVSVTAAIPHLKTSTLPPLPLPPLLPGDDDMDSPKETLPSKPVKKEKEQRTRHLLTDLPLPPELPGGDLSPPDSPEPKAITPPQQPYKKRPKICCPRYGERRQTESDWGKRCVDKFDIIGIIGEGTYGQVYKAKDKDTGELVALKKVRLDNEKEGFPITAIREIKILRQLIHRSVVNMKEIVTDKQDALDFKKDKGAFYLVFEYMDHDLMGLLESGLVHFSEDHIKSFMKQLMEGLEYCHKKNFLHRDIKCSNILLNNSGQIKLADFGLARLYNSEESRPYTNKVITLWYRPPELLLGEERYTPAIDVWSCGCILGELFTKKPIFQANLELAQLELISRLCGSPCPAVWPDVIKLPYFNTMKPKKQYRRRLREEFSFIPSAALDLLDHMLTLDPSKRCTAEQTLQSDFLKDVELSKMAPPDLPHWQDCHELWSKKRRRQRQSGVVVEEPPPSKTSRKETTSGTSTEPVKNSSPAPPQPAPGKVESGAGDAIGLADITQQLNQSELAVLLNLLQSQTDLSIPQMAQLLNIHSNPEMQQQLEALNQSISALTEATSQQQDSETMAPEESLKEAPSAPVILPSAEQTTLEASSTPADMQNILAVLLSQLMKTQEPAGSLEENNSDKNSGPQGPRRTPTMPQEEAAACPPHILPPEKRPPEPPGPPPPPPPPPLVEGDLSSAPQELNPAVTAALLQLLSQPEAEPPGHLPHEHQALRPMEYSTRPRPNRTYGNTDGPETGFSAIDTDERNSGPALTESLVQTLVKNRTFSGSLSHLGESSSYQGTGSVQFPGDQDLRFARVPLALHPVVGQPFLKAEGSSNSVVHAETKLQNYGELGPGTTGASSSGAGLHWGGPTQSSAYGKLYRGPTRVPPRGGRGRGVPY
Chain of CDK12/CycK (Q9NYV4 with tags, fused parts or gaps): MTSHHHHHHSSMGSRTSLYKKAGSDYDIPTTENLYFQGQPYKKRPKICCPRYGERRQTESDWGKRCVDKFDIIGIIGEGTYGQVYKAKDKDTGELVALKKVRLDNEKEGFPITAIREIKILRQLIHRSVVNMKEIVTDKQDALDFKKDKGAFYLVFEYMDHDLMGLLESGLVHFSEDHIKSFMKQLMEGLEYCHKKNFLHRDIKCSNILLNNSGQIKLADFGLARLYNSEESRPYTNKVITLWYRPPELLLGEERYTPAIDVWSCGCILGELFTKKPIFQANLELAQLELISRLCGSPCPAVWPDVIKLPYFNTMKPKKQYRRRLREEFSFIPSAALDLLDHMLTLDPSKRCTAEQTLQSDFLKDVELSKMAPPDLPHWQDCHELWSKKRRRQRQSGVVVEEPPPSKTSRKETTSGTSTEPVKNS
Chain of CDK12/CycK (O75909 1-300 partner limits assumed): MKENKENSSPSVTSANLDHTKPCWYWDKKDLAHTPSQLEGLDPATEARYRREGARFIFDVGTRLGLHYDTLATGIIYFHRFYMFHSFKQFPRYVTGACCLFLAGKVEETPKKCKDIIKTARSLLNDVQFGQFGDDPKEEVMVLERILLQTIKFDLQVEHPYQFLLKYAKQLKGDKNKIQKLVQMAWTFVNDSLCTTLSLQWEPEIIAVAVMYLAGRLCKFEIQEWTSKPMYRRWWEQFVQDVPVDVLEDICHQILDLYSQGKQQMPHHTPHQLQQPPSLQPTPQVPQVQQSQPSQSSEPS

Row | Structure (SMILES) | DC50 [1] [nM] | IC50 (CDK12/CycK) [nM] | IC50 [2] [nM]
1 | Cc1ccnc2[nH]c(CNc3nc(N4CCOCC4)nc4c(C(C)C)cnn34)nc12 [Example 28, N-[(7-methyl-3H-imidazo[4,5-b]pyridin-2-yl)methyl]-2-(morpholin-4-yl)-8-(propan-2-yl)pyrazolo[1,5-a][1,3,5]triazin-4-amine] | 0.888 | 3320 | 30.6
2 | Fc1ccc2[nH]c(CNc3nc(N4CC5CCC(C4)N5)nc4c(Cl)cnn34)nc2c1F.O=CO [Example 360, formic acid 8-chloro-2-(3,8-diazabicyclo[3.2.1]octan-3-yl)-N-[(4,5-difluoro-1H-benzimidazol-2-yl)methyl]pyrazolo[1,5-a][1,3,5]triazin-4-amine] | 0.709 | 4010 | 
3 | CN1CCN(c2nc(NCc3nc4cc(C(F)(F)F)ccc4[nH]3)n3ncc(Br)c3n2)CC1 [Example 344, 8-bromo-2-(4-methylpiperazin-1-yl)-N-{[5-(trifluoromethyl)-1H-benzimidazol-2-yl]methyl}pyrazolo[1,5-a][1,3,5]triazin-4-amine] | 0.392 | 8370 | 
4 | Cc1cc2nc(CNc3nc(N4CC5CCC(C4)N5)nc4c(C5CC5)cnn34)[nH]c2cc1C [Example 326, 8-cyclopropyl-2-(3,8-diazabicyclo[3.2.1]octan-3-yl)-N-[(5,6-dimethyl-1H-benzimidazol-2-yl)methyl]pyrazolo[1,5-a][1,5]triazin-4-amine] | 0.654 | 942 | 
5 | Fc1c(Cl)ccc2[nH]c(CNc3nc(N4CC5CCC(C4)N5)nc4c(Br)cnn34)nc12 [Example 380, 8-bromo-N-[(5-chloro-4-fluoro-1H-benzimidazol-2-yl)methyl]-2-(3,8-diazabicyclo[3.2.1]octan-3-yl)pyrazolo[1,5-a][1,3,5]triazin-4-amine] | 0.22 | 1020 | 
6 | CC(C)c1cnn2c(NCc3ncc(-c4ccccc4)[nH]3)nc(N3CCN(C)CC3)nc12 [Example 31, 2-(4-methylpiperazin-1-yl)-N-[(5-phenyl-1H-imidazol-2-yl)methyl]-8-(propan-2-yl)pyrazolo[1,5-a][1,3,5]triazin-4-amine] |  | 13600 | 54.9
7 | Fc1ccc(-c2nnc(CNc3nc(N4CCOCC4)nc4c(Br)cnn34)[nH]2)cc1 [Example 29, 8-bromo-N-{[5-(4-fluorophenyl)-4H-1,2,4-triazol-3-yl]methyl}-2-(morpholin-4-yl)pyrazolo[1,5-a][1,3,5]triazin-4-amine] | 3.36 | 3670 | 84.1
8 | CN1CCN(c2nc(NCc3nc4cc(F)c(F)cc4[nH]3)n3ncc(Br)c3n2)CC1 [Example 346, 8-bromo-N-[(5,6-difluoro-1H-benzimidazol-2-yl)methyl]-2-(4-methylpiperazin-1-yl)pyrazolo[1,5-a][1,3,5]triazin-4-amine] | 0.149 | 12200 | 
9 | Fc1cc2nc(CNc3nc(N4CC5CCC(C4)N5)nc4c(Br)cnn34)[nH]c2cc1F [Example 355, 8-bromo-2-(3,8-diazabicyclo[3.2.1]octan-3-yl)-N-[(5,6-difluoro-1H-benzimidazol-2-yl)methyl]pyrazolo[1,5-a][1,3,5]triazin-4-amine] | 0.481 | 4180 | 
10 | CN1CCN(c2nc(NCc3nc4cc(Cl)c(Cl)cc4[nH]3)n3ncc(Br)c3n2)CC1 [Example 330, 8-bromo-N-[(5,6-dichloro-1H-benzimidazol-2-yl)methyl]-2-(4-methylpiperazin-1-yl)pyrazolo[1,5-a][1,3,5]triazin-4-amine] | 0.16 | 4630 | 
11 | CN1CCN(c2nc(NCc3nc4c(F)c(Cl)ccc4[nH]3)n3ncc(Br)c3n2)CC1 [Example 373, 8-bromo-N-[(5-chloro-4-fluoro-1H-benzimidazol-2-yl)methyl]-2-(4-methylpiperazin-1-yl)pyrazolo[1,5-a][1,3,5]triazin-4-amine] | 0.0805 | 3060 | 
12 | CN1C2CCC1CN(c1nc(NCc3nc4c(F)c(F)ccc4[nH]3)n3ncc(C(F)(F)F)c3n1)C2 [Example 356, N-[(4,5-difluoro-1H-benzimidazol-2-yl)methyl]-2-(8-methyl-3,8-diazabicyclo[3.2.1]octan-3-yl)-8-(trifluoromethyl)pyrazolo[1,5-a][1,3,5]triazin-4-amine] | 2.01 | 4910 | 
13 | CN1CCN(c2nc(NCc3nc4c(F)c(Cl)ccc4[nH]3)n3ncc(C4CC4)c3n2)CC1 [Example 371, N-[(5-chloro-4-fluoro-1H-benzimidazol-2-yl)methyl]-8-cyclopropyl-2-(4-methylpiperazin-1-yl)pyrazolo[1,5-a][1,3,5]triazin-4-amine] | 0.652 | 5250 | 

More lines, in order of falling IC50 (CDK12/CycK), values ahead:

Row | DC50 [1] [nM] | IC50 (CDK12/CycK) [nM] | IC50 [2] [nM] | Structure (SMILES)
14 | 0.492 | 2380 |  | CN(CC(C)(C)O)c1nc(NCc2nc3cc(F)c(F)cc3[nH]2)n2ncc(C3CC3)c2n1 [Example 319, 1-[(8-cyclopropyl-4-{[(5,6-difluoro-1H-benzimidazol-2-yl)methyl]amino}pyrazolo[1,5-a][1,3,5]triazin-2-yl)(methyl)amino]-2-methylpropan-2-ol]
15 | 0.552 | 1150 |  | Fc1ccc2[nH]c(CNc3nc(N4CCOCC4)nc4c(Cl)cnn34)nc2c1F [Example 357]
16 | 0.827 | 618 |  | Cc1cc2nc(CNc3nc(N4CCOCC4)nc4c(Br)cnn34)[nH]c2cc1C [Example 340, 8-bromo-N-[(5,6-dimethyl-1H-benzimidazol-2-yl)methyl]-2-(morpholin-4-yl)pyrazolo[1,5-a][1,3,5]triazin-4-amine]
17 | 0.258 | 169 |  | Fc1c(Cl)ccc2[nH]c(CNc3nc(N4CCOCC4)nc4c(C5CC5)cnn34)nc12 [Example 370, N-[(5-chloro-4-fluoro-1H-benzimidazol-2-yl)methyl]-8-cyclopropyl-2-(morpholin-4-yl)pyrazolo[1,5-a][1,3,5]triazin-4-amine]
18 | 0.345 | 155 |  | CN(CC(C)(C)O)c1nc(NCc2nc3c(F)c(Cl)ccc3[nH]2)n2ncc(Br)c2n1 [Example 374, 1-[(8-bromo-4-{[(5-chloro-4-fluoro-1H-benzimidazol-2-yl)methyl]amino}pyrazolo[1,5-a][1,3,5]triazin-2-yl)(methyl)amino]-2-methylpropan-2-ol]
